# Molecular target: phosphorylated active hERK2 enzyme (Homo sapiens (Human), UniProt P28482)
# Conditions: read-out: ERK2 IC50; IMAP-FP assay; 0.5 nM hERK2, 30 μM ATP; 10 point titration, 3 μM starting concentration
# Chain of phosphorylated active hERK2 enzyme (P28482 whole entry): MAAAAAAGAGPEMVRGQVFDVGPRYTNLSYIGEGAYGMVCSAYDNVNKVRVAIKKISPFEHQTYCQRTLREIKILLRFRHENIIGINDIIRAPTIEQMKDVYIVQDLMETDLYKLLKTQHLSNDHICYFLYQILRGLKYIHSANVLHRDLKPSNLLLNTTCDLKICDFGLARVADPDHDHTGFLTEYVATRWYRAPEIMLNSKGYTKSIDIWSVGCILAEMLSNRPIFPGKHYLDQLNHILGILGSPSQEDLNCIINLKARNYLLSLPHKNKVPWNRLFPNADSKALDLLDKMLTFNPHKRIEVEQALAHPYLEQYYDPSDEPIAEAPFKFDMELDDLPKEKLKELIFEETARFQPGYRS
row,SMILES,IC50 [nM]
1,"Cc1cc(-n2ncc3cc(NC(=O)NCC(CO)c4ccccc4)ncc32)ccn1 (stereo not shown) [Example 49, 1-(3-hydroxy-2-phenylpropyl)-3-[1-(2-methylpyridin-4-yl)-1H-pyrazolo[3,4-c]pyridin-5-yl]urea]",7.66
2,"Cc1cc(-n2ncc3cc(NC(=O)NCC(c4ccccc4)N4CCCCC4)ncc32)ccn1 (stereo not shown) [Example 50, 1-[1-(2-methylpyridin-4-yl)-1H-pyrazolo[3,4-c]pyridin-5-yl]-3-(2-phenyl-2-piperidin-1-ylethyl)urea]",198
3,"Cc1cc(-n2ncc3cc(NC(=O)NC(CCN(C)C)c4ccccc4)ncc32)ccn1 (stereo not shown) [Example 51, 1-[3-(dimethylamino)-1-phenylpropyl]-3-[1-(2-methylpyridin-4-yl)-1H-pyrazolo[3,4-c]pyridin-5-yl)urea]",2.7
4,"Cc1cc(-n2ncc3cc(NC(=O)NCC4(c5ccccc5)CCOCC4)ncc32)ccn1 [Example 52, 1-[1-(2-methylpyridin-4-yl)-1H-pyrazolo[3,4-c]pyridin-5-yl]-3-[(4-phenyltetrahydro-2H-pyran-4-yl)methyl]urea]",7.09
5,"Cc1cc(-n2ncc3cc(NC(=O)NC(CCN4CCCCC4)c4ccccc4)ncc32)ccn1 (stereo not shown) [Example 53, 1-[1-(2-methylpyridin-4-yl)-1H-pyrazolo[3,4-c]pyridin-5-yl]-3-(1-phenyl-3-piperidin-1-ylpropyl)urea]",49.2
6,"Cc1cc(-n2ncc3cc(NC(=O)NCC(c4ccc(F)cc4)N4CCCCC4)ncc32)ccn1 (stereo not shown) [Example 54, 1-[2-(4-fluorophenyl)-2-piperidin-1-ylethyl]-3-[1-(2-methylpyridin-4-yl)-1H-pyrazolo[3,4-c]pyridin-5-yl)urea]",195
7,"Cc1cc(-n2ncc3cc(NC(=O)NCC(c4ccccc4)N4CCC(F)(F)CC4)ncc32)ccn1 (stereo not shown) [Example 55, 1-[2-(4,4-difluoropiperidin-1-yl)-2-phenylethyl]-3-[1-(2-methylpyridin-4-yl)-1H-pyrazolo[3,4-c]pyridin-5-yl]urea]",85.1
8,"COc1cccc(F)c1CN1CCC[C@@H](NC(=O)Nc2cc3cnn(-c4ccnc(C)c4)c3cn2)C1 [Example 56, 1-[(3R)-1-(2-fluoro-6-methoxybenzyl)piperidin-3-yl]-3-[1-(2-methylpyridin-4-yl)-1H-pyrazolo[3,4-c]pyridin-5-yl]urea]",0.524
9,"Cc1cc(-n2ncc3cc(NC(=O)NC4CN(C)CC4c4ccccc4)ncc32)ccn1 (stereo not shown) [Example 57, 1-(1-methyl-4-phenylpyrrolidin-3-yl)-3-[1-(2-methylpyridin-4-yl)-1H-pyrazolo[3,4-c]pyridin-5-yl]urea]",0.823
10,"Cc1cc(-n2ncc3cc(NC(=O)NCc4ccccc4)ncc32)ccn1 [Example 58, 1-benzyl-3-[1-(2-methylpyridin-4-yl)-1H-pyrazolo[3,4-c]pyridin-5-yl]urea]",8.41
11,"Cc1cc(-n2ncc3cc(NC(=O)N[C@H](C)c4ccccc4)ncc32)ccn1 [Example 59, 1-[1-(2-methylpyridin-4-yl)-1H-pyrazolo[3,4-c]pyridin-5-yl]-3-[(1R)-1-phenylethyl]urea]",1.01
12,"Cc1cc(-n2ncc3cc(NC(=O)NCc4cnn(-c5ccc(F)cc5)c4)ncc32)ccn1 [Example 60, 1-{[1-(4-fluorophenyl)-1H-pyrazol-4-yl]methyl}-3-[1-(2-methylpyridin-4-yl)-1H-pyrazolo[3,4-c]pyridin-5-yl]urea]",1630
13,"Cc1cc(-n2ncc3cc(NC(=O)NCC(F)(F)c4ccccc4)ncc32)ccn1 [Example 61, 1-(2,2-difluoro-2-phenylethyl)-3-[1-(2-methylpyridin-4-yl)-1H-pyrazolo[3,4-c]pyridin-5-yl]urea]",193
14,"Cc1cc(-n2ncc3cc(NC(=O)NC(CN)c4ccccc4)ncc32)ccn1 (stereo not shown) [Example 62, 1-(2-amino-1-phenylethyl)-3-[1-(2-methylpyridin-4-yl)-1H-pyrazolo[3,4-c]pyridin-5-yl]urea]",0.962
15,"Cc1cc(-n2ncc3cc(NC(=O)NC4CNCC4c4ccccc4)ncc32)ccn1 (stereo not shown) [Example 63, 1-[1-(2-methylpyridin-4-yl)-1H-pyrazolo[3,4-c]pyridin-5-yl]-3-(4-phenylpyrrolidin-3-yl)urea]",54.4
16,"Cc1cc(-n2ncc3cc(NC(=O)NCc4cnn5ccccc45)ncc32)ccn1 [Example 64, 1-[1-(2-methylpyridin-4-yl)-1H-pyrazolo[3,4-c]pyridin-5-yl]-3-(pyrazolo[1,5-a]pyridin-3-ylmethyl)urea]",71.6
17,"Cc1cc(-n2ncc3cc(NC(=O)N[C@H](CO)c4ccccc4)ncc32)ccn1 [Example 65, 1-[(1S)-2-hydroxy-1-phenylethyl]-3-[1-(2-methylpyridin-4-yl)-1H-pyrazolo[3,4-c]pyridin-5-yl]urea]",1.02
18,"Cc1cc(-n2ncc3cc(NC(=O)NC(C)c4ccc(S(C)(=O)=O)cc4)ncc32)ccn1 (stereo not shown) [Example 66, 1-[1-(2-methylpyridin-4-yl)-1H-pyrazolo[3,4-c]pyridin-5-yl]-3-{1-[4-(methylsulfonyl)phenyl]ethyl}urea]",7.78
19,"Cc1cc(-n2ncc3cc(NC(=O)NC4CNC(c5ccccc5)C4)ncc32)ccn1 (stereo not shown) [Example 67, 1-[1-(2-methylpyridin-4-yl)-1H-pyrazolo[3,4-c]pyridin-5-yl]-3-(5-phenylpyrrolidin-3-yl)urea]",200

row,SMILES,IC50 [nM]
1,"Cc1cc(-n2ncc3cc(NC(=O)NCc4sc(C(C)C)nc4C)ncc32)ccn1 [Example 68, 1-{[4-methyl-2-(1-methylethyl)-1,3-thiazol-5-yl]methyl}-3-[1-[2-methylpyridin-4-yl)-1H-pyrazolo[3,4-c]pyridin-5-yl]urea]",707
2,"Cc1cc(-n2ncc3cc(NC(=O)NCC4(c5ccccc5)CCOC4)ncc32)ccn1 (stereo not shown) [Example 69, 1-[1-(2-methylpyridin-4-yl)-1H-pyrazolo[3,4-c]pyridin-5-yl]-3-[(3-phenyltetrahydrofuran-3-yl)methyl]urea]",17.7
3,"Cc1cc(-n2ncc3cc(NC(=O)NCCN4CC5CC4CN5c4ccccc4)ncc32)ccn1 (stereo not shown) [Example 70, 1-[1-(2-methylpyridin-4-yl)-1H-pyrazolo[3,4-c]pyridin-5-yl]-3-[2-(5-phenyl-2,5-diazabicyclo[2.2.1]hept-2-yl)ethyl]urea]",16.9
4,"Cc1cc(-n2ncc3cc(NC(=O)NC(CCN(C)C)c4ccccn4)ncc32)ccn1 (stereo not shown) [Example 72, 1-[3-(dimethylamino)-1-pyridin-2-ylpropyl]-3-[1-(2-methylpyridin-4-yl)-1H-pyrazolo[3,4-c]pyridin-5-yl]urea]",10.2
5,"Cc1cc(-n2ncc3cc(NC(=O)NCC(c4ccccn4)N4CCOCC4)ncc32)ccn1 (stereo not shown) [Example 73, 1-[1-(2-methylpyridin-4-yl)-1H-pyrazolo[3,4-c]pyridin-5-yl]-3-(2-morpholin-4-yl-2-pyridin-2-ylethyl)urea]",243
6,"Cc1cc(-n2ncc3cc(NC(=O)NCc4ccc5c(c4)CC(=O)N5)ncc32)ccn1 [Example 74, 1-[1-(2-methylpyridin-4-yl)-1H-pyrazolo[3,4-c]pyridin-5-yl]-3-[(2-oxo-2,3-dihydro-1H-indol-5-yl)methyl]urea]",73.1
7,Cc1cc(-n2ncc3cc(NC(=O)NCc4cccc(-n5cccn5)c4)ncc32)ccn1 [Example 75],5.28
8,"Cc1cc(-n2ncc3cc(NC(=O)NCc4ccc(-n5cccn5)cc4)ncc32)ccn1 [Example 76, 1-[1-(2-methylpyridin-4-yl)-1H-pyrazolo[3,4-c]pyridin-5-yl]-3-[4-(1H-pyrazol-1-yl)benzyl]urea]",1110
9,"Cc1cc(-n2ncc3cc(NC(=O)NC45CC6CC(CC(O)(C6)C4)C5)ncc32)ccn1 [Example 77, 1-(3-hydroxytricyclo[3.3.1.1~3,7~]dec-1-yl)-3-[1-(2-methylpyridin-4-yl)-1H-pyrazolo[3,4-c]pyridin-5-yl)urea]",1880
10,"Cc1cc(-n2ncc3cc(NC(=O)NC4CCN(c5ccccc5)CC4)ncc32)ccn1 [Example 78, 1-[1-(2-methylpyridin-4-yl)-1H-pyrazolo[3,4-c]pyridin-5-yl]-3-(1-phenylpiperidin-4-yl)urea]",1740
11,"Cc1cc(-n2ncc3cc(NC(=O)NCC4CN(c5ccccc5)CCO4)ncc32)ccn1 (stereo not shown) [Example 79, 1-[1-(2-methylpyridin-4-yl)-1H-pyrazolo[3,4-c]pyridin-5-yl]-3-[(4-phenylmorpholin-2-yl)methyl]urea]",26.5
12,"Cc1cc(-n2ncc3cc(NC(=O)NC4CC(=O)Nc5ccccc54)ncc32)ccn1 (stereo not shown) [Example 80, 1-[1-(2-methylpyridin-4-yl)-1H-pyrazolo[3,4-c]pyridin-5-yl]-3-(2-oxo-1,2,3,4-tetrahydroquinolin-4-yl)urea]",196
13,"Cc1cc(-n2ncc3cc(NC(=O)N[C@@H](c4ccccc4)C(F)F)ncc32)ccn1 [Example 81, 1-[(1S)-2,2-difluoro-1-phenylethyl]-3-[1-(2-methylpyridin-4-yl)-1H-pyrazolo[3,4-c]pyridin-5-yl)urea]",914
14,"Cc1cc(-n2ncc3cc(NC(=O)NC4CCCN(c5ccccc5)C4)ncc32)ccn1 (stereo not shown) [Example 82, 1H-pyrazolo[3,4-c]pyridin-1-[1-(2-methylpyridin-4-yl)-5-yl]-3-(1-phenylpiperidin-3-yl)urea]",7.61
15,"Cc1cc(-n2ncc3cc(NC(=O)NCCC4CCOC4)ncc32)ccn1 (stereo not shown) [Example 83, 1-[1-(2-methylpyridin-4-yl)-1H-pyrazolo[3,4-c]pyridin-5-yl]-3-[2-(tetrahydrofuran-3-yl)ethyl]urea]",64.7
16,"Cc1cc(-n2ncc3cc(NC(=O)NCc4ccc5c(c4)CNC5=O)ncc32)ccn1 [Example 84, 1-[1-(2-methylpyridin-4-yl)-1H-pyrazolo[3,4-c]pyridin-5-yl]-3-[(1-oxo-2,3-dihydro-1H-isoindol-5-yl)methyl]urea]",17.4
17,"Cc1cc(-n2ncc3cc(NC(=O)NCCOc4ccc(F)cc4)ncc32)ccn1 [Example 85, 1-[2-(4-fluorophenoxy)ethyl]-3-[1-(2-methylpyridin-4-yl)-1H-pyrazolo[3,4-c]pyridin-5-yl)urea]",15.9
18,"Cc1cc(-n2ncc3cc(NC(=O)NCc4ccc(C(C)(C)O)cc4)ncc32)ccn1 [Example 86, 1-[4-(1-hydroxy-1-methylethyl)benzyl]-3-[1-(2-methylpyridin-4-yl)-1H-pyrazolo[3,4-c]pyridin-5-yl)urea]",731

# Reference: US9884048B2, “ERK inhibitors” (Merck Sharp & Dohme Corp., priority 2014, dated 2018)
